From publication PMC9596378, “Discovery and molecular basis of subtype-selective cyclophilin inhibitors” (Nature Chemical Biology, 2022)
“And” between values parts separate entries of the source, which are not always exact repeats. Identical values can stand only once. Like-named read-outs stand apart in the source and are kept apart here.

Legend:
Assay in all cases: Chymotrypsin coupled prolyl-isomerase assay
PPIL1 = target: T1, PPIL1 (Homo sapiens, UniProt Q9Y3C6); type: biochemical; conditions: for PPIL1 prolyl-isomerase assay raw dose-response value: Fig. 3b source data, replicates
T1 construct: PPIL1 (UniProtKB Entry Q9Y3C6: residues 1–166); made in house; host or cells: E. coli BL21(DE3)
T1 sequence (Q9Y3C6 1-166): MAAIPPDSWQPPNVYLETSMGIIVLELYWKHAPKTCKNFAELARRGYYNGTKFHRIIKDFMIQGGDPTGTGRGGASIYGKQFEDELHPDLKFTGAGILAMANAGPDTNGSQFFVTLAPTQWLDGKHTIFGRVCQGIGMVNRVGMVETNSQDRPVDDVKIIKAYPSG

Cyp40 = Cyp40 (Homo sapiens, UniProt Q08752); conditions: for Cyp40 prolyl-isomerase assay raw dose-response value: Fig. 3b source data, replicates
Sequence of Cyp40 (Q08752 1-183): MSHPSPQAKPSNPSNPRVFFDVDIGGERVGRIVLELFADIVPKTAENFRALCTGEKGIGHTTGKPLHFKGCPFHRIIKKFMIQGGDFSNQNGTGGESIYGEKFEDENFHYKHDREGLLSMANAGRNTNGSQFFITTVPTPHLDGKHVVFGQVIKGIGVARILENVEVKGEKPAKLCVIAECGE
Outline: (§1)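 Chymotrypsin-coupled cis–trans isomerization of Suc-AAPF-AMC (5 µM) catalysed by 5 nM cyclophilin, run cold (2–3 °C) at pH 7.3 with 5 min compound preincubation.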

NKTR = target: T2, NKTR (Homo sapiens, UniProt P30414); type: biochemical; conditions: for NKTR prolyl-isomerase assay raw dose-response value: Fig. 3b source data, replicates
T2 construct: NKTR (UniProtKB Entry P30414: residues 7–179); host or cells: E. coli BL21(DE3)
T2 sequence (P30414 7-179): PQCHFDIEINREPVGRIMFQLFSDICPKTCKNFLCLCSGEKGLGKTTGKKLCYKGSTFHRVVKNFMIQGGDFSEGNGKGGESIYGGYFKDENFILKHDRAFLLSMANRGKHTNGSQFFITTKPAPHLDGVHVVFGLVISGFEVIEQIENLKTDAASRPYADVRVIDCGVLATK

CypE = target: T3, CypE (Homo sapiens, UniProt Q9UNP9); type: biochemical; conditions: for CypE prolyl-isomerase assay raw dose-response value: Fig. 3b source data, replicates
T3 construct: PPIE (UniProtKB Entry Q9UNP9: residues 131–301); host or cells: E. coli BL21(DE3)
T3 sequence (Q9UNP9 131-301): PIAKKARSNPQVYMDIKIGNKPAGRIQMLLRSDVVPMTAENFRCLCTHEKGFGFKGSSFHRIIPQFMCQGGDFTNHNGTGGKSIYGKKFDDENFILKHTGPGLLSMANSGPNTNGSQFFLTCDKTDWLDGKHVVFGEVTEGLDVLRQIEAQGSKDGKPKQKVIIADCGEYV
Outline: as §1

CypC = target: T4, CypC (Homo sapiens, UniProt P45877); type: biochemical; conditions: for CypC prolyl-isomerase assay raw dose-response value: Fig. 3b source data, replicates
T4 construct: PPIC (UniProtKB Entry P45877: residues 24–212); host or cells: E. coli BL21(DE3)
T4 sequence (P45877 24-212): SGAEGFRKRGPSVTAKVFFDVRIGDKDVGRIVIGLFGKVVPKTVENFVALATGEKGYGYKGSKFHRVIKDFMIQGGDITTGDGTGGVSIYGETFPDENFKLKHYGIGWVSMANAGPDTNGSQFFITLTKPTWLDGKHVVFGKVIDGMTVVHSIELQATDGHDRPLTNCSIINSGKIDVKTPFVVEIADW
Outline: as §1

CypA = target: T5, CypA (Homo sapiens, UniProt P62937); type: biochemical; conditions: for CypA prolyl-isomerase assay raw dose-response value: Fig. 3b source data, replicates
T5 construct: PPIA (UniProtKB Entry P62937: residues 1–165); made in house; host or cells: E. coli BL21(DE3)
T5 sequence (P62937 whole entry, the tested form may be a part): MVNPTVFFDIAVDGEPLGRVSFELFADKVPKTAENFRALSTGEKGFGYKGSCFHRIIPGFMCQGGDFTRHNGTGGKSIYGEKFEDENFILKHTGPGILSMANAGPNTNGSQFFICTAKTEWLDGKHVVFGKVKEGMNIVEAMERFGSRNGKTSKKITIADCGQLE
Outline: as §1

CypG = target: T6, CypG (Homo sapiens, UniProt Q13427); type: biochemical; conditions: for CypG prolyl-isomerase assay raw dose-response value: Fig. 3b source data, replicates
T6 construct: PPIG (UniProtKB Entry Q13427: residues 1–179); His6 with thrombin site (pET28a LIC leader) (N); host or cells: E. coli BL21(DE3)
T6 sequence (Q13427 1-179): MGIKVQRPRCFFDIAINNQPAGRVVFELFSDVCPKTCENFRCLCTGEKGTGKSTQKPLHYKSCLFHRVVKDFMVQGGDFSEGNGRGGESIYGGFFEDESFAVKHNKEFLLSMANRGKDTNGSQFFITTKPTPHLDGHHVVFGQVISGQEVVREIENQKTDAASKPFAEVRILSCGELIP
Outline: as §1

CypH = target: T7, CypH (Homo sapiens, UniProt O43447); type: biochemical; conditions: for CypH prolyl-isomerase assay raw dose-response value: Fig. 3b source data, replicates
T7 construct: PPIH (UniProtKB Entry O43447: residues 1–177); His6 with TEV site (2BT vector leader) (N); made in house; host or cells: E. coli BL21(DE3)
T7 sequence (O43447 whole entry, the tested form may be a part): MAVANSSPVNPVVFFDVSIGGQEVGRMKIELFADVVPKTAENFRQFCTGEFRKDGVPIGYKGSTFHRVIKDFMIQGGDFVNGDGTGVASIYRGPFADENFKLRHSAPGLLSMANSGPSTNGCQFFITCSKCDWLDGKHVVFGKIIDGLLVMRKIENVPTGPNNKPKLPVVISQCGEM
Outline: as §1

NCCOCCNC(=O)[C@@H]1CCNC(=O)/C=C/C(=O)N2CCC[C@](Cc3ccccc3)(C2)C(=O)N[C@@H](Cc2ccc(-c3ccc(C#CC(=O)O)cc3)cc2)C(=O)NCc2ccccc2CC(=O)N1 [Compound B25]
PPIL1 prolyl-isomerase assay raw dose-response value (PPIL1; Dose 0.0228624 µM): 0.0374 and 0.04134 and 0.04686 | PPIL1 prolyl-isomerase assay raw dose-response value (PPIL1; Dose 0.0685871 µM): 0.02743 and 0.02671 and 0.02724 | PPIL1 prolyl-isomerase assay raw dose-response value (PPIL1; Dose 0.205761 µM): 0.01848 and 0.01869 | PPIL1 prolyl-isomerase assay raw dose-response value (PPIL1; Dose 0.617284 µM): 0.01432 and 0.01378 and 0.01288 | PPIL1 prolyl-isomerase assay raw dose-response value (PPIL1; Dose 1.85185 µM): 0.01263 and 0.01274 and 0.01211 | PPIL1 prolyl-isomerase assay raw dose-response value (PPIL1; Dose 5.55556 µM): 0.01183 and 0.01164 and 0.01059 | PPIL1 prolyl-isomerase assay raw dose-response value (PPIL1; Dose 16.6667 µM): 0.01229 and 0.01158 and 0.01139 | PPIL1 prolyl-isomerase assay raw dose-response value (PPIL1; Dose 50 µM): 0.01421 and 0.01181 and 0.01108 | IC50 (PPIL1; wild-type PPIL1, read-out: Wild-Type Cyclophilin Prolyl Isomerase Inhibition IC50 Values, PPIL1): 20 nM | Cyp40 prolyl-isomerase assay raw dose-response value (Cyp40; Dose 0.00457247 µM): 0.06429 and 0.05599 and 0.07223 | Cyp40 prolyl-isomerase assay raw dose-response value (Cyp40; Dose 0.0137174 µM): 0.05813 and 0.05507 and 0.05318 | Cyp40 prolyl-isomerase assay raw dose-response value (Cyp40; Dose 0.0411523 µM): 0.04821 and 0.05825 and 0.0731 | Cyp40 prolyl-isomerase assay raw dose-response value (Cyp40; Dose 0.123457 µM): 0.04592 and 0.05196 and 0.05288 | Cyp40 prolyl-isomerase assay raw dose-response value (Cyp40; Dose 0.37037 µM): 0.03591 and 0.03468 and 0.03748 | Cyp40 prolyl-isomerase assay raw dose-response value (Cyp40; Dose 1.11111 µM): 0.02292 and 0.02127 and 0.02239 | Cyp40 prolyl-isomerase assay raw dose-response value (Cyp40; Dose 3.33333 µM): 0.01681 and 0.01439 and 0.01521 | Cyp40 prolyl-isomerase assay raw dose-response value (Cyp40; Dose 10 µM): 0.01651 and 0.01201 and 0.01273 | IC50 (Cyp40; Wild-Type Cyclophilin Prolyl Isomerase Inhibition IC50 Values, Cyp40, wild-type Cyp40): 210 nM | NKTR prolyl-isomerase assay raw dose-response value (NKTR; Dose 0.0228624 µM): 0.03241 and 0.03231 and 0.03444 | NKTR prolyl-isomerase assay raw dose-response value (NKTR; Dose 0.0685871 µM): 0.03299 and 0.03067 and 0.03202 | NKTR prolyl-isomerase assay raw dose-response value (NKTR; Dose 0.205761 µM): 0.03236 and 0.03203 | NKTR prolyl-isomerase assay raw dose-response value (NKTR; Dose 0.617284 µM): 0.03089 and 0.03188 and 0.03316 | NKTR prolyl-isomerase assay raw dose-response value (NKTR; Dose 1.85185 µM): 0.03191 and 0.03168 and 0.03161 | NKTR prolyl-isomerase assay raw dose-response value (NKTR; Dose 5.55556 µM): 0.03134 and 0.03255 and 0.03129 | NKTR prolyl-isomerase assay raw dose-response value (NKTR; Dose 16.6667 µM): 0.03138 and 0.0295 and 0.03008 | NKTR prolyl-isomerase assay raw dose-response value (NKTR; Dose 50 µM): 0.02697 and 0.02369 and 0.02457 | IC50 (NKTR; wild-type NKTR, read-out: Wild-Type Cyclophilin Prolyl Isomerase Inhibition IC50 Values, NKTR): > 50000 nM | CypE prolyl-isomerase assay raw dose-response value (CypE; Dose 0.000457247 µM): 0.09478 and 0.08516 and 0.1307 | CypE prolyl-isomerase assay raw dose-response value (CypE; Dose 0.00137174 µM): 0.1073 and 0.09145 and 0.116 | CypE prolyl-isomerase assay raw dose-response value (CypE; Dose 0.00411523 µM): 0.07586 and 0.07841 | CypE prolyl-isomerase assay raw dose-response value (CypE; Dose 0.0123457 µM): 0.04723 and 0.04807 and 0.05181 | CypE prolyl-isomerase assay raw dose-response value (CypE; Dose 0.037037 µM): 0.02767 and 0.0265 and 0.02701 | CypE prolyl-isomerase assay raw dose-response value (CypE; Dose 0.111111 µM): 0.01749 and 0.01613 and 0.01666 | CypE prolyl-isomerase assay raw dose-response value (CypE; Dose 0.333333 µM): 0.01375 and 0.01292 and 0.01229 | CypE prolyl-isomerase assay raw dose-response value (CypE; Dose 1 µM): 0.01434 and 0.0116 and 0.01112 | IC50 (CypE; wild-type CypE, read-out: Wild-Type Cyclophilin Prolyl Isomerase Inhibition IC50 Values, CypE): 9 nM | CypC prolyl-isomerase assay raw dose-response value (CypC; Dose 0.0228624 µM): 0.03634 and 0.03032 and 0.04283 | CypC prolyl-isomerase assay raw dose-response value (CypC; Dose 0.0685871 µM): 0.03426 and 0.03095 and 0.03961 | CypC prolyl-isomerase assay raw dose-response value (CypC; Dose 0.205761 µM): 0.03174 and 0.03534 | CypC prolyl-isomerase assay raw dose-response value (CypC; Dose 0.617284 µM): 0.02955 and 0.03116 and 0.0299 | CypC prolyl-isomerase assay raw dose-response value (CypC; Dose 1.85185 µM): 0.02445 and 0.02477 and 0.02432 | CypC prolyl-isomerase assay raw dose-response value (CypC; Dose 5.55556 µM): 0.0192 and 0.01832 and 0.02111 | CypC prolyl-isomerase assay raw dose-response value (CypC; Dose 16.6667 µM): 0.016 and 0.01339 and 0.01312 | CypC prolyl-isomerase assay raw dose-response value (CypC; Dose 50 µM): 0.01835 and 0.01198 and 0.01251 | IC50 (CypC; wild-type CypC, read-out: Wild-Type Cyclophilin Prolyl Isomerase Inhibition IC50 Values, CypC): 1800 nM | IC50 (CypA; CypA column within the mutant section (comparator for CypA E81S/K82R), read-out: Mutant Cyclophilin Prolyl Isomerase Inhibition IC50 Values, CypA): 37 nM | CypA prolyl-isomerase assay raw dose-response value (CypA; Dose 0.00457247 µM): 0.1146 and 0.097 and 0.1434 | CypA prolyl-isomerase assay raw dose-response value (CypA; Dose 0.0137174 µM): 0.07936 and 0.08714 and 0.118 | CypA prolyl-isomerase assay raw dose-response value (CypA; Dose 0.0411523 µM): 0.05569 and 0.06344 and 0.07261 | CypA prolyl-isomerase assay raw dose-response value (CypA; Dose 0.123457 µM): 0.03132 and 0.03338 and 0.03777 | CypA prolyl-isomerase assay raw dose-response value (CypA; Dose 0.37037 µM): 0.02003 and 0.0199 and 0.02096 | CypA prolyl-isomerase assay raw dose-response value (CypA; Dose 1.11111 µM): 0.015 and 0.01431 and 0.01411 | CypA prolyl-isomerase assay raw dose-response value (CypA; Dose 3.33333 µM): 0.01402 and 0.01221 and 0.01255 | CypA prolyl-isomerase assay raw dose-response value (CypA; Dose 10 µM): 0.01563 and 0.01147 and 0.01176 | IC50 (CypA; prolyl-isomerase inhibition, 5 nM cyclophilin, read-out: IC50 CypA): 37 ± 7 nM | IC50 (CypA; wild-type CypA, read-out: Wild-Type Cyclophilin Prolyl Isomerase Inhibition IC50 Values, CypA): 37 nM | CypG prolyl-isomerase assay raw dose-response value (CypG; Dose 0.0228624 µM): 0.06249 and 0.05548 and 0.0638 | CypG prolyl-isomerase assay raw dose-response value (CypG; Dose 0.0685871 µM): 0.05565 and 0.04551* and 0.05901 | CypG prolyl-isomerase assay raw dose-response value (CypG; Dose 0.205761 µM): 0.04568 and 0.0619 | CypG prolyl-isomerase assay raw dose-response value (CypG; Dose 0.617284 µM): 0.03977 and 0.04815 and 0.06466 | CypG prolyl-isomerase assay raw dose-response value (CypG; Dose 1.85185 µM): 0.05698 and 0.05304 and 0.05804 | CypG prolyl-isomerase assay raw dose-response value (CypG; Dose 5.55556 µM): 0.0448 and 0.05687 and 0.05139 | CypG prolyl-isomerase assay raw dose-response value (CypG; Dose 16.6667 µM): 0.04193 and 0.04196 and 0.0448 | CypG prolyl-isomerase assay raw dose-response value (CypG; Dose 50 µM): 0.03044 and 0.02213 and 0.02754 | IC50 (CypG; prolyl-isomerase inhibition, 5 nM cyclophilin, read-out: IC50 CypG): ~25000 nM | IC50 (CypG; wild-type CypG, read-out: Wild-Type Cyclophilin Prolyl Isomerase Inhibition IC50 Values, CypG): 25000 nM | CypH prolyl-isomerase assay raw dose-response value (CypH; Dose 0.0228624 µM): 0.04387 and 0.03667 and 0.04369 | CypH prolyl-isomerase assay raw dose-response value (CypH; Dose 0.0685871 µM): 0.04493 and 0.03523 and 0.04571 | CypH prolyl-isomerase assay raw dose-response value (CypH; Dose 0.205761 µM): 0.04732 and 0.03749 | CypH prolyl-isomerase assay raw dose-response value (CypH; Dose 0.617284 µM): 0.04296 and 0.03867 and 0.04263 | CypH prolyl-isomerase assay raw dose-response value (CypH; Dose 1.85185 µM): 0.0451 and 0.03462 and 0.04053 | CypH prolyl-isomerase assay raw dose-response value (CypH; Dose 5.55556 µM): 0.04418 and 0.03887 and 0.03972 | CypH prolyl-isomerase assay raw dose-response value (CypH; Dose 16.6667 µM): 0.03817 and 0.03665 and 0.03617 | CypH prolyl-isomerase assay raw dose-response value (CypH; Dose 50 µM): 0.02975 and 0.02514 and 0.02678 | IC50 (CypH; prolyl-isomerase inhibition, 5 nM cyclophilin, read-out: IC50 CypH): ~50000 nM | IC50 (CypH; wild-type CypH, read-out: Wild-Type Cyclophilin Prolyl Isomerase Inhibition IC50 Values, CypH): 50000 nM
